# Literature values, collected in article PMC4008333 (Cancer chemotherapy and pharmacology, 2012).
# Starred links: 1 amine or outer side, 2 acyl side, 3 side chain; linkers in the order of their positions; H or OH if unused. Positions of bridges follow the written chain, without caps; N, C: chain ends. Non-standard residues stand in square brackets, D forms with d. Residues, ends and D or L forms follow the SMILES beside them. Chains are numbered I, II in the order given. Actinocin(9to1) = Cc1c2oc3c(C)ccc(C(=O)[*:1])c3nc-2c(C(=O)[*:2])c(N)c1=O; NMeV = CN[C@H](C(=O)O)C(C)C; Sar = CNCC(=O)O
# Conditions: historical model; point estimate (% RSE)
smiles,measurement,value
"Cc1c2oc3c(C)ccc(C(=O)N[C@@H]4C(=O)N[C@H](C(C)C)C(=O)N5CCC[C@H]5C(=O)N(C)CC(=O)N(C)[C@@H](C(C)C)C(=O)O[C@@H]4C)c3nc-2c(C(=O)N[C@@H]2C(=O)N[C@H](C(C)C)C(=O)N3CCC[C@H]3C(=O)N(C)CC(=O)N(C)[C@@H](C(C)C)C(=O)O[C@@H]2C)c(N)c1=O [AMD, actinomycin-D] (I: T[dV]P[Sar][NMeV] / II: T[dV]P[Sar][NMeV]; ester I:1-I:C, II:1-II:C; linker I:N-II:N via Actinocin(9to1))",Q2,11.4 (58.8) L/h/70 kg
same,Q3,25.2 (23.3) L/h/70 kg
same,V1,3.56 (39.3) L/70 kg
same,V2,16.1 (80.7) L/70 kg
same,V3,367 (19.7) L/70 kg
